The record followed here is PMC5095285, “The fungal-specific β-glucan-binding lectin FGB1 alters cell-wall composition and suppresses glucan-triggered immunity in plants” (Nature Communications, 2016).

This test deals with T1, FGB1 (Serendipita indica, UniProt G4TDB9).
T1 construct: gene PIIN_03211; native secreted mature protein purified from P. indica culture filtrate, signal peptide removed; precursor 104 residues; 6,219 Da, non-glycosylated, four disulfide bridges; no tag
Kind of test: isothermal titration calorimetry (VP-ITC). The test is classed as binding. The note with it: in water, 20 °C; single-site model, N=0.854±0.243; printed error exceeds the value (likely exponent misprint); read-out: K (converted). The source says:
isothermal titration calorimetry (VP-ITC) on FGB1 | The titration of gentiobiose to FGB1 was fitted to a single-side-binding model

T1 sequence (G4TDB9 entry or part of it): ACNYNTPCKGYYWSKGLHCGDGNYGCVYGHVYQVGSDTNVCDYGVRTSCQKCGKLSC

As to `OC[C@H]1O[C@@H](OC[C@H]2OC(O)[C@H](O)[C@@H](O)[C@@H]2O)[C@H](O)[C@@H](O)[C@@H]1O` (stereo partly shown) [gentiobiose], the Kd is 11.4 µM.
